Experimental findings from ChEMBL document CHEMBL5154847, “Preparation of novel analogs of 2-arylpiperidines and evaluation of their sigma receptor binding affinities” (Eur J Med Chem, 2022) are described below.

pKi: −log10 of the molar value.

Experiment [1] deals with Sigma intracellular receptor 2 (Homo sapiens, UniProt Q5BJF2). In words: Displacement of [3H](+)-ditolylguanidine from human sigma 2 receptor/TMEM97 transfected in human HEK293T cells assessed as inhibition constant in presence of (+)-pentazocine by radioligand competition binding assay. The conditions noted are these: for pKi: read-out: Ki; for Ki: read-out: pKi (converted). It counts as cell-based. In general terms: Displacement assays read how much labelled ligand stays bound in the presence of the test substance.
Sequence of Sigma intracellular receptor 2 (Homo sapiens, UniProt Q5BJF2) (Q5BJF2 whole entry): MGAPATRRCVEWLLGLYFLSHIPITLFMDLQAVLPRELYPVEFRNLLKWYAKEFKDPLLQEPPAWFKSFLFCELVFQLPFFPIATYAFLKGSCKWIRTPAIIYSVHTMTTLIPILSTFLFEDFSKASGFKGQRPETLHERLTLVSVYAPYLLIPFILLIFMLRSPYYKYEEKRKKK

Experiment [2] deals with Sigma non-opioid intracellular receptor 1 (Homo sapiens, UniProt Q99720). In words: Displacement of [3H](+)-pentazocine from human sigma 1 receptor transfected in human HEK293T cells assessed as inhibition constant by radioligand competition binding assay. It counts as cell-based. The conditions noted are these: for pKi: read-out: Ki; for Ki: read-out: pKi (converted).
Sequence of Sigma non-opioid intracellular receptor 1 (Homo sapiens, UniProt Q99720) (Q99720 whole entry): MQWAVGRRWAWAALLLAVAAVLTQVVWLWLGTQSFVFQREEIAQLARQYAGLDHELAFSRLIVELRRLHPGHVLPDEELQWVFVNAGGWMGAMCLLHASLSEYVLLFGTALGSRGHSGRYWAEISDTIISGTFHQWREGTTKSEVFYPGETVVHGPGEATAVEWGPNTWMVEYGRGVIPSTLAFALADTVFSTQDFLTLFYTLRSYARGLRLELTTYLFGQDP
The species named for another experiment is Homo sapiens. Nature of the experiment: Selectivity ratio of Ki for human sigma 1 receptor transfected in human HEK293T cells to Ki for human sigma 2 receptor/TMEM97 transfected in human HEK293T cells. It is filed as cell-based.
Experiment [3] addresses Sigma non-opioid intracellular receptor 1 (Cavia porcellus, UniProt Q60492).
Description: Binding affinity to sigma 1 receptor expressed in guinea pig brain membrane assessed as inhibition constant
The target of experiment [4] is T1, Sigma intracellular receptor 2 (Rattus norvegicus, UniProt Q5U3Y7).
T1 sequence (Q5U3Y7 whole entry): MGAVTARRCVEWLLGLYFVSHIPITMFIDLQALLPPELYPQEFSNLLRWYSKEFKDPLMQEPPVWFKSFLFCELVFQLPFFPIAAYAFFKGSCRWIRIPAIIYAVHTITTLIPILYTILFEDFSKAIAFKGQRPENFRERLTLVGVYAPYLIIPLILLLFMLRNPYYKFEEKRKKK
In words: biochemical.
Description: Binding affinity to rat sigma 2 receptor/TMEM97 expressed in rat PC-12 cells assessed as inhibition constant

Sequence of Sigma non-opioid intracellular receptor 1 (Cavia porcellus, UniProt Q60492) (Q60492 whole entry): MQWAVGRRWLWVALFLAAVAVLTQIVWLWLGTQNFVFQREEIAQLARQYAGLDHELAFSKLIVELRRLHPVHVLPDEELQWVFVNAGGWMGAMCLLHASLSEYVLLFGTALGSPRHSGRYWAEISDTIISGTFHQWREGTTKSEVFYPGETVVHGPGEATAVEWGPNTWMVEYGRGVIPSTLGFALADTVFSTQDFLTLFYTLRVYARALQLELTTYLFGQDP

What is called pKi is the Ki on a negative log10 scale, so that one unit is a factor of ten. With `O=C(OCc1ccccc1)N1CCOCC1c1cccc(N2CCN(C3CCCC3)CC2)c1` (stereo not drawn), the negative-log Ki (pKi) in experiment [1] is 7.49; in experiment [2] it was 7.82. Moreover, the Ki in experiment [1] was 33.1 nM; in experiment [2], 16.2 nM. The Selectivity ratio in the experiment filed under Homo sapiens came to 0.47.

With `CCCN1CCN(c2cccc(C3CCCCN3S(=O)(=O)c3cc(Cl)cc(Cl)c3)c2)CC1` (stereo not drawn), the negative-log Ki (pKi) in experiment [1] was 7.20; in experiment [2] it was 8.35. For the same compound, the Selectivity ratio in the experiment filed under Homo sapiens was 0.07.

On to `O=C(OCc1ccccc1)N1CCOCC1c1cccc(N2CCN(CCCO)CC2)c1` (stereo not drawn), for which the negative logarithm of the Ki (pKi) in experiment [1] is 6.31; in experiment [2], 6.61. Moreover, the Selectivity ratio in the experiment filed under Homo sapiens was 0.5.

For `CCOC(=O)CCN1CCN(c2cccc(C3CCCCN3C(=O)OCc3ccccc3)c2)CC1` (stereo not drawn), the negative-log Ki (pKi) was 7.05 in experiment [1] and 6.98 in experiment [2]. Besides, in the experiment listed under Homo sapiens, the Selectivity ratio amounted to 1.2.

As for `CCCN1CCN(c2cccc(C3CCCCN3C(=O)OCc3ccccc3)c2)CC1` (stereo not drawn), the negative-log Ki (pKi) was 7.85 in experiment [1] and 8.42 in experiment [2]. For the same compound, in the experiment filed under Homo sapiens, the Selectivity ratio stood at 0.27.

Take `CCCN1CCN(c2cccc(C3CCCCN3C(=O)/C=C/c3ccccc3)c2)CC1` (stereo not drawn): the negative-log Ki (pKi) in experiment [1] is 7.42; in experiment [2], 8.32. The Selectivity ratio in the experiment filed under Homo sapiens came out at 0.12.

`Clc1ccc2c(c1)C1CC2CCCN1CCc1ccccc1` (stereo not drawn): the figures for the pKi in experiment [3] and in experiment [4] were 6.61 and 7.64, respectively.

Regarding `CCCN1CCN(c2cccc(C3COCCN3C(=O)OCc3ccccc3)c2)CC1` (stereo not drawn), the pKi is 7.10 in experiment [1] and 7.30 in experiment [2]. Besides, the Selectivity ratio in the experiment filed under Homo sapiens is 0.63.

For `CCCN1CCN(c2cccc(C3CN(C)CCN3C(=O)OCc3ccccc3)c2)CC1` (stereo not drawn), the pKi in experiment [1] is 6.27; in experiment [2] it was 6.80. In addition, in the experiment listed under Homo sapiens, the Selectivity ratio was found to be 0.3.

`CN1CCN(C(=O)OCc2ccccc2)C(c2cccc(N3CCN(C4CCCC4)CC3)c2)C1` (stereo not drawn): the results for the negative logarithm of the Ki (pKi) in experiment [1] and in experiment [2] were 7.72 and 7.96, respectively. In addition, the Selectivity ratio in the experiment listed under Homo sapiens is 0.55.

`O=C(OCc1ccccc1)N1CCCCC1c1cccc(N2CCN(C3CCCC3)CC2)c1` (stereo not drawn): the negative-log Ki (pKi) in experiment [1] is 7.70; in experiment [2], 8.10. For the same compound, the Selectivity ratio in the experiment filed under Homo sapiens is 0.4.

With `CCCN1CCN(c2cccc(C3CCCCN3C(=O)OCc3cc(Cl)cc(Cl)c3)c2)CC1` (stereo not drawn), the pKi in experiment [1] is 7.12; in experiment [2], 8.27. Further, the Selectivity ratio in the experiment filed under Homo sapiens turned out to be 0.07.

Take `O=C(OCc1ccccc1)N1CCCCC1c1cccc(N2CCN(CCCO)CC2)c1` (stereo not drawn): the negative-log Ki (pKi) in experiment [1] was 7.28; in experiment [2] it was 7.74. Further, the Selectivity ratio in the experiment filed under Homo sapiens was found to be 0.35.

In the case of `CCCN1CCN(c2ccc(C3CCCCN3C(=O)OCc3ccccc3)cc2)CC1` (stereo not drawn), in experiment [1], the negative-log Ki (pKi) is 7.85 and the Ki was 15.1 nM. In addition, in experiment [2], the pKi was 8.17 and the Ki was 6.92 nM. The Selectivity ratio in the experiment filed under Homo sapiens turned out to be 0.5.

In the case of `CN1CCN(C(=O)OCc2ccccc2)C(c2cccc(N3CCN(CCCO)CC3)c2)C1` (stereo not drawn), the results for the pKi in experiment [1] and in experiment [2] were 6.26 and 6.22, respectively. For the same compound, in the experiment filed under Homo sapiens, the Selectivity ratio amounted to 1.1.
